The values that follow come from patent US20240158446A1, “CYCLIC COMPOUND HAVING SELECTIVE INHIBITORY ACTION ON KRAS OVER HRAS AND NRAS” (CHUGAI SEIYAKU KABUSHIKI KAISHA, priority 2021, published 2024).

The target in assay [1] is GDP-bound HRAS wild-type protein (Homo sapiens, UniProt P01112). Kind of assay: Binding to HRAS by surface plasmon resonance (SPR), Single Cycle Kinetics. The settings on record: for HRAS/KRAS (ratio of KD value for HRAS to KD value for KRAS) / HRAS/KRAS (ratio of KD value with respect to HRAS to KD value with respect to KRAS): GDP-bound HRAS wild-type protein vs GDP-bound KRAS wild-type protein; for HRAS/KRAS (ratio of KD value with respect to GDP-bound HRAS wild-type protein to KD value with respect to KRAS): SPR KD ratio HRAS/KRAS, class symbols.

Assay [2] has as its target GDP-bound KRAS wild-type protein (Homo sapiens, UniProt P01116). Put plainly: Binding to KRAS by surface plasmon resonance (SPR), Single Cycle Kinetics. The settings on record: GDP-bound KRAS wild-type protein, read-out: KRAS KD.
For assay [3], the target named is GDP-bound NRAS wild-type protein (Homo sapiens, UniProt P01111). Kind of assay: Binding to NRAS by surface plasmon resonance (SPR), Single Cycle Kinetics. The settings on record: for NRAS/KRAS (ratio of KD value for NRAS to KD value for KRAS) / NRAS/KRAS (ratio of KD value with respect to NRAS to KD value with respect to KRAS): GDP-bound NRAS wild-type protein vs GDP-bound KRAS wild-type protein; for NRAS/KRAS (ratio of KD value with respect to GDP-bound NRAS wild-type protein to KD value with respect to KRAS): SPR KD ratio NRAS/KRAS, class symbols.

Where [4] appears, read: SPR Single Cycle Kinetics, 1:1 binding model.

Structures are written as SMILES. Read-outs that look alike come from different tables or passages of the source. Where a SMILES comes first, the peptide text is derived from it. Bridges are numbered along the chain shown (N, C = ends). [ ]: non-standard residue; d: D form. The star is where a group is joined. hPhe(3,5-F2-4-CF3) = N[C@@H](CCc1cc(F)c(C(F)(F)F)c(F)c1)C(=O)O; hPhe(3-Cl-4-CF3) = N[C@@H](CCc1ccc(C(F)(F)F)c(Cl)c1)C(=O)O; NPrPhe(4-CF3) = CCCN[C@@H](Cc1ccc(C(F)(F)F)cc1)C(=O)O; NMeGly(cPent) = CN[C@H](C(=O)O)C1CCCC1; Piperidide(4-Me) = CC1CCN(*)CC1; NMeD = CN[C@@H](CC(=O)O)C(=O)O; Ac4c(3-oxa) = NC1(C(=O)O)COC1; NMeL = CN[C@@H](CC(C)C)C(=O)O; Morpholide = C1CN(*)CCO1; Ac5c = NC1(C(=O)O)CCCC1; Sar = CNCC(=O)O

Chain of GDP-bound KRAS wild-type protein (P01116 whole entry): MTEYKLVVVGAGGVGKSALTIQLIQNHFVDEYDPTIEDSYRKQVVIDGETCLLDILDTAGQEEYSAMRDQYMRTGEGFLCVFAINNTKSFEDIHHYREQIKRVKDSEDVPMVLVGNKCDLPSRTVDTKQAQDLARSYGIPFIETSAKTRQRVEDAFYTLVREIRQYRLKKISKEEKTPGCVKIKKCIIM
Chain of GDP-bound HRAS wild-type protein (P01112 whole entry): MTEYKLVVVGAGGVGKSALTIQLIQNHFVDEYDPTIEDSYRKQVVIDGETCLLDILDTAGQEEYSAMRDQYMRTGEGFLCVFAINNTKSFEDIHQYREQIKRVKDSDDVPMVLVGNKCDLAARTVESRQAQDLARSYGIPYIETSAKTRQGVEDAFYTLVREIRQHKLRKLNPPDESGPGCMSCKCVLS
Chain of GDP-bound NRAS wild-type protein (P01111 whole entry): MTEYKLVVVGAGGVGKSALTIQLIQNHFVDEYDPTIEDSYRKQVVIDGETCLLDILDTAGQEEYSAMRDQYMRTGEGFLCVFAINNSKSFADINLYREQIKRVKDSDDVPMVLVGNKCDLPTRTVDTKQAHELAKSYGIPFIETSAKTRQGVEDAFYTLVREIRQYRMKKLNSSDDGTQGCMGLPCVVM

With `CCO[C@@H]1C[C@H]2C(=O)NC3(CCC3)C(=O)N(C)[C@@H](C3CCCC3)C(=O)N(C)[C@H](C(=O)N3CCOCC3)CC(=O)N(C)[C@@H](CC)C(=O)N[C@@H]([C@@H](C)CC)C(=O)N3CC[C@H]3C(=O)N(C)[C@H]3CC(C)=CCN(C3=O)[C@@H](Cc3ccc(C(F)(F)F)cc3)C(=O)N(C)CC(=O)N[C@@H](CCc3cc(F)c(C(F)(F)F)c(F)c3)C(=O)N2C1` [PP1042], the “HRAS/KRAS (ratio of KD value for HRAS to KD value for KRAS)” value in assay [1] (SPR) was “C (A compound having a KD ratio of 0.1 or more and less than 3 is denoted as C)”. In assay [2] (SPR, Single Cycle Kinetics), the Kd turned out to be 1300 pM. Besides, the “NRAS/KRAS (ratio of KD value for NRAS to KD value for KRAS)” value in assay [3] (SPR) is “C (A compound having a KD ratio of 0.1 or more and less than 3 is denoted as C)”.
Consider `CCO[C@@H]1C[C@H]2C(=O)NC3(CCCC3)C(=O)N(C)[C@@H](C3CCCC3)C(=O)N(C)[C@H](C(=O)N(C)C)CC(=O)N(C)[C@@H](CC)C(=O)N[C@@H]([C@@H](C)CC)C(=O)N(C)CC(=O)N(C)[C@H]3C[C@H](C)C(C)CN(C3=O)[C@@H](Cc3ccc(C(F)(F)F)cc3)C(=O)N(C)CC(=O)N[C@@H](CCc3cc(F)c(C(F)(F)F)c(F)c3)C(=O)N2C1` (stereo partly drawn) [PP1347], for which the “HRAS/KRAS (ratio of KD value for HRAS to KD value for KRAS)” value in assay [1] (SPR, KD ratio class) is “B (a compound having 3 or more and less than 10 is denoted as B)”. Also, the dissociation constant (Kd) in assay [2] (SPR, Single Cycle Kinetics, 1:1 binding model) stood at 17 pM. For the same compound, the “NRAS/KRAS (ratio of KD value for NRAS to KD value for KRAS)” value in assay [3] (SPR, KD ratio class) is “B (a compound having 3 or more and less than 10 is denoted as B)”.
In the case of `CCC[C@H]1C(=O)N[C@@H]([C@@H](C)CC)C(=O)N(C2CC2)CC(=O)N(C)[C@H]2C/C=C\CCN(C2=O)[C@@H](Cc2ccc(C(F)(F)F)cc2)C(=O)N(C)CC(=O)N[C@@H](CCc2ccc(C(F)(F)F)c(OC)c2)C(=O)N2C[C@H](OCC)C[C@H]2C(=O)NC2(CC(C)(C)C2)C(=O)N(C)[C@@H](CC2CCC2)C(=O)N(C)[C@H](C(=O)N(C)C)CC(=O)N1C` [PP2770], in assay [1], the “HRAS/KRAS (ratio of KD value with respect to GDP-bound HRAS wild-type protein to KD value with respect to KRAS)” value is “A (a compound having 10 or more and less than 20 is denoted as A)”. For the same compound, the dissociation constant Kd in assay [2] (setting [4]) amounted to 5000 pM. The “NRAS/KRAS (ratio of KD value with respect to GDP-bound NRAS wild-type protein to KD value with respect to KRAS)” value in assay [3] is “A (a compound having 10 or more and less than 20 is denoted as A)”.
Regarding `CCO[C@@H]1C[C@H]2C(=O)NC3(CC(C)(C)C3)C(=O)N(C)[C@@H](C3CCCC3)C(=O)N(C)[C@H](C(=O)N(C)C)CC(=O)N(C)[C@H]3CCCC/C=C/c4ccc(cc4)C[C@@H](C(=O)N(C)CC(=O)N[C@@H](CCc4ccc(C(F)(F)F)c(OC)c4)C(=O)N2C1)N1CC/C=C\C[C@@H](C1=O)N(C)C(=O)CN(C)C(=O)[C@H]([C@@H](C)CC)NC3=O` [PP1832], in assay [1] (ratio of KD for GDP-bound HRAS wild-type protein to KD for KRAS, SPR), the “HRAS/KRAS (KD ratio)” value is “B (a compound having 3 or more and less than 10 is denoted as B)”. The dissociation constant (Kd) in assay [2] (SPR, Single Cycle Kinetics) came to 40 pM. In assay [3] (ratio of KD for GDP-bound NRAS wild-type protein to KD for KRAS, SPR), the “NRAS/KRAS (KD ratio)” value was “B (a compound having 3 or more and less than 10 is denoted as B)”.
In the case of `CC[C@H](C)[C@@H]1NC(=O)[C@H](C2CC2)N(C)C(=O)C[C@@H](C(=O)N(C)CC)N(C)C(=O)[C@H](C2CCCC2)N(C)C(=O)C2(CCC2)NC(=O)[C@@H]2C[C@H](C)CN2C(=O)[C@H](CCc2cc(F)c(C(F)(F)F)c(F)c2)NC(=O)CN(C)C(=O)[C@H](Cc2ccc(C(F)(F)F)cc2)N2CC/C=C\C[C@@H](C2=O)N(C)C(=O)CN(C)C1=O` [PP2080], the “HRAS/KRAS (ratio of KD value for HRAS to KD value for KRAS)” value in assay [1] (SPR) is “A (a compound having 10 or more and less than 20 is denoted as A)”. The Kd in assay [2] (SPR, Single Cycle Kinetics) was found to be 93 pM. Further, the “NRAS/KRAS (ratio of KD value for NRAS to KD value for KRAS)” value in assay [3] (SPR) is “A (a compound having 10 or more and less than 20 is denoted as A)”.
In the case of `CC[C@H](C)[C@@H]1NC(=O)[C@H](CC(C)C)N(C)C(=O)C[C@@H](C(=O)N2CCOCC2)N(C)C(=O)[C@H](C2CCCC2)N(C)C(=O)C2(CCC2)NC(=O)[C@@H]2C[C@@H](OC)CN2C(=O)[C@H](CCc2cc(F)c(C(F)(F)F)c(F)c2)NC(=O)CN(C)C(=O)[C@H](Cc2ccc(C(F)(F)F)cc2)N2CCCCC[C@@H](C2=O)N(C)C(=O)CN(C)C1=O` [PP1016], the “HRAS/KRAS (ratio of KD value for HRAS to KD value for KRAS)” value in assay [1] (SPR) is “B (a compound having 3 or more and less than 10 is denoted as B)”. The Kd in assay [2] (SPR, Single Cycle Kinetics) is 270 pM. In addition, the “NRAS/KRAS (ratio of KD value for NRAS to KD value for KRAS)” value in assay [3] (SPR) was “A (a compound having 10 or more and less than 20 is denoted as A)”.
With `CCCN1C(=O)CN(C)C(=O)CN(C)C(=O)[C@H]([C@@H](C)CC)NC(=O)[C@H](CC(C)C)N(C)C(=O)C[C@@H](C(=O)N2CCC(C)CC2)N(C)C(=O)[C@H](C2CCCC2)N(C)C(=O)C2(CCCC2)NC(=O)[C@@H]2CCCN2C(=O)[C@H](CCc2ccc(C(F)(F)F)c(Cl)c2)NC(=O)CN(C)C(=O)[C@@H]1Cc1ccc(C(F)(F)F)cc1` [PP0176] ([NMeL]I[Sar][Sar][NPrPhe(4-CF3)][Sar][hPhe(3-Cl-4-CF3)]P[Ac5c][NMeGly(cPent)][NMeD]-{Piperidide(4-Me)}; lactam N-11), in assay [1] (SPR), the “HRAS/KRAS (ratio of KD value for HRAS to KD value for KRAS)” value is “C (A compound having a KD ratio of 0.1 or more and less than 3 is denoted as C)”. The Kd in assay [2] (setting [4]) came out at 550 pM. Besides, the “NRAS/KRAS (ratio of KD value for NRAS to KD value for KRAS)” value in assay [3] (SPR) is “B (a compound having 3 or more and less than 10 is denoted as B)”.
`CCO[C@@H]1C[C@H]2C(=O)NC3(CCCC3)C(=O)N(C)[C@@H](C3CCCC3)C(=O)N(C)[C@H](C(=O)N(C)C)CC(=O)N(C)[C@@H](C)C(=O)N[C@@H]([C@@H](C)CC)C(=O)N(C)CC(=O)N(C)[C@H]3CCCCN(C3=O)[C@@H](Cc3ccc(C(F)(F)F)cc3)C(=O)N(C)CC(=O)N[C@@H](CCc3cc(F)c(C(F)(F)F)c(F)c3)C(=O)N2C1` [PP0586]: in assay [1] (SPR), the “HRAS/KRAS (ratio of KD value with respect to HRAS to KD value with respect to KRAS)” value was “B (a compound having 3 or more and less than 10 is denoted as B)”. In addition, the dissociation constant (Kd) in assay [2] (setting [4]) was determined as 10 pM. Besides, in assay [3] (SPR), the “NRAS/KRAS (ratio of KD value with respect to NRAS to KD value with respect to KRAS)” value was “C (A compound having a KD ratio of 0.1 or more and less than 3 is denoted as C)”.
Turning to `CCC[C@H]1C(=O)N[C@@H]([C@@H](C)CC)C(=O)N(C)CC(=O)N(C)[C@H]2C/C=C\CCN(C2=O)[C@@H](Cc2ccc(C(F)(F)F)cc2)C(=O)N(C)CC(=O)N[C@@H](CCc2ccc(C(F)(F)F)c(OC)c2)C(=O)N2C[C@H](OCC)C[C@H]2C(=O)NC2(CC(C)(C)C2)C(=O)N(C)[C@@H](CC2CC2)C(=O)N(C)[C@H](C(=O)N(C)C)CC(=O)N1C` [PP2809], in assay [1], the “HRAS/KRAS (ratio of KD value with respect to GDP-bound HRAS wild-type protein to KD value with respect to KRAS)” value was “A (a compound having 10 or more and less than 20 is denoted as A)”. Besides, the Kd in assay [2] (setting [4]) turned out to be 900 pM. For the same compound, the “NRAS/KRAS (ratio of KD value with respect to GDP-bound NRAS wild-type protein to KD value with respect to KRAS)” value in assay [3] is “A (a compound having 10 or more and less than 20 is denoted as A)”.
Regarding `CCCN1C(=O)CN(C)C(=O)CN(C)C(=O)[C@H]([C@@H](C)CC)NC(=O)[C@H](CC(C)C)N(C)C(=O)C[C@@H](C(=O)N2CCOCC2)N(C)C(=O)[C@H](C2CCCC2)N(C)C(=O)C2(COC2)NC(=O)[C@@H]2CCCN2C(=O)[C@H](CCc2cc(F)c(C(F)(F)F)c(F)c2)NC(=O)CN(C)C(=O)[C@@H]1Cc1ccc(C(F)(F)F)cc1` [PP0765] ([NMeL]I[Sar][Sar][NPrPhe(4-CF3)][Sar][hPhe(3,5-F2-4-CF3)]P[Ac4c(3-oxa)][NMeGly(cPent)][NMeD]-Morpholide; lactam N-11), the “HRAS/KRAS (ratio of KD value with respect to HRAS to KD value with respect to KRAS)” value in assay [1] (SPR) is “C (A compound having a KD ratio of 0.1 or more and less than 3 is denoted as C)”. The dissociation constant (Kd) in assay [2] (setting [4]) came to 310 pM. Further, the “NRAS/KRAS (ratio of KD value with respect to NRAS to KD value with respect to KRAS)” value in assay [3] (SPR) is “B (a compound having 3 or more and less than 10 is denoted as B)”.
